Measurements: ChEMBL document CHEMBL4673175, “An epigrammatic status of the azole-based antimalarial drugs” (RSC Med Chem, 2020)
In brackets after ≈: the same amount, converted by molar mass.

System: Hemozoin
Assay: Inhibition of beta-hematin formation at 5 to 100 mM incubated for 48 hrs
Settings: dose 5-100 mM
With O=C(Nc1ccc(C(F)(F)F)cc1)c1ccc2[nH]c(-c3ccc([N+](=O)[O-])s3)nc2c1 the inhibition was < 98%.

System: Plasmodium falciparum
Assay: Antimalarial activity against chloroquine sensitive Plasmodium falciparum assessed as reduction in parasite growth incubated for 48 hrs
Format: functional, organism-based
Settings: not given
COc1ccc(C2=NC3Nc4ccccc4N3C(c3c(C)nn(-c4ccccc4)c3-n3cncn3)=C2)cc1 (stereo not drawn) showed an IC50 of 0.03 µg/mL (≈ 0.0599 µM).
In the case of Cc1nn(-c2ccccc2)c(-n2ccnc2)c1C1=CC(c2cccs2)=NC2Nc3ccccc3N12 (stereo not drawn), the IC50 is reported as 0.03 µg/mL (≈ 0.0631 µM).
Cc1nn(-c2ccccc2)c(-n2ccnc2)c1C1CC(c2ccc(Br)cc2)=NO1 (stereo not drawn) showed an IC50 of 0.012 µg/mL (≈ 0.0268 µM).
In the case of Cc1nn(-c2ccccc2)c(-n2ccnc2)c1C1=CC(c2ccc(F)cc2)=NC2Nc3ccccc3N12 (stereo not drawn), the IC50 is reported as 0.03 µg/mL (≈ 0.0615 µM).
In the case of Cc1nn(-c2ccccc2)c(-n2cncn2)c1C1=CC(c2ccc(F)cc2)=NC2Nc3ccccc3N12 (stereo not drawn), the IC50 is reported as 0.03 µg/mL (≈ 0.0614 µM).
Cc1nn(-c2ccccc2)c(-n2ccnc2)c1C1CC(c2ccccc2)=NO1 (stereo not drawn) showed an IC50 of 0.012 µg/mL (≈ 0.0325 µM).
With Cc1cn(-c2c(C3CC(c4ccc(-c5ccccc5)cc4)=NN3)c(C)nn2-c2ccccc2)cn1 (stereo not drawn) the IC50 was 0.012 µg/mL (≈ 0.0262 µM).
Work on Cc1cn(-c2c(C3CC(c4ccccc4)=NN3)c(C)nn2-c2ccccc2)cn1 (stereo not drawn) yielded an IC50 of 0.012 µg/mL (≈ 0.0314 µM).
In the case of Cc1cn(-c2c(C3CC(c4ccc(Br)cc4)=NN3)c(C)nn2-c2ccccc2)cn1 (stereo not drawn), the IC50 is reported as 0.012 µg/mL (≈ 0.026 µM).
With Cc1cn(-c2c(C3CC(c4ccc(O)cc4)=NN3)c(C)nn2-c2ccccc2)cn1 (stereo not drawn) the IC50 was 0.012 µg/mL (≈ 0.0301 µM).
Work on Cc1cn(-c2c(C3CC(c4ccccc4)=NO3)c(C)nn2-c2ccccc2)cn1 (stereo not drawn) yielded an IC50 of 0.012 µg/mL (≈ 0.0313 µM).
For COc1ccc(C2=NNC(c3c(C)nn(-c4ccccc4)c3-n3ccnc3)C2)cc1 (stereo not drawn), the IC50 was 0.012 µg/mL (≈ 0.0301 µM).
With COc1ccc(C2=NNC(c3c(C)nn(-c4ccccc4)c3-n3cnc(C)c3)C2)cc1 (stereo not drawn) the IC50 was 0.012 µg/mL (≈ 0.0291 µM).
With Cc1nn(-c2ccccc2)c(-n2ccnc2)c1C1=CC(c2ccc(O)cc2)=NC2Nc3ccccc3N12 (stereo not drawn) the IC50 was 0.03 µg/mL (≈ 0.0618 µM).
Cc1nn(-c2ccccc2)c(-n2ccnc2)c1C1CC(c2ccc(F)cc2)=NO1 (stereo not drawn) gave an IC50 of 0.012 µg/mL (≈ 0.031 µM).
With Cc1nn(-c2ccccc2)c(-n2cncn2)c1C1=CC(c2ccc(O)cc2)=NC2Nc3ccccc3N12 (stereo not drawn) the IC50 was 0.03 µg/mL (≈ 0.0617 µM).
Molecule Cc1nn(-c2ccccc2)c(-n2ccnc2)c1C1=CC(c2cc[nH]c2)=NC2Nc3ccccc3N12 (stereo not drawn) has an IC50 of 0.03 µg/mL (≈ 0.0654 µM).
Cc1nn(-c2ccccc2)c(-n2ccnc2)c1C1CC(c2ccc(O)cc2)=NN1 (stereo not drawn) showed an IC50 of 0.012 µg/mL (≈ 0.0312 µM).
Molecule Cc1nn(-c2ccccc2)c(-n2cncn2)c1C1=CC(c2cccs2)=NC2Nc3ccccc3N12 (stereo not drawn) has an IC50 of 0.03 µg/mL (≈ 0.0629 µM).
Work on Cc1cn(-c2c(C3CC(c4ccc(O)cc4)=NO3)c(C)nn2-c2ccccc2)cn1 (stereo not drawn) yielded an IC50 of 0.012 µg/mL (≈ 0.03 µM).
Molecule Cc1nn(-c2ccccc2)c(-n2cncn2)c1C1=CC(c2cc[nH]c2)=NC2Nc3ccccc3N12 (stereo not drawn) has an IC50 of 0.03 µg/mL (≈ 0.0653 µM).
Molecule Cc1nn(-c2ccccc2)c(-n2ccnc2)c1C1CC(c2ccccc2)=NN1 (stereo not drawn) has an IC50 of 0.012 µg/mL (≈ 0.0326 µM).
Cc1nn(-c2ccccc2)c(-n2ccnc2)c1C1CC(c2ccc(F)cc2)=NN1 (stereo not drawn) showed an IC50 of 0.012 µg/mL (≈ 0.0311 µM).
Molecule Cc1nn(-c2ccccc2)c(-n2ccnc2)c1C1CC(c2ccc(-c3ccccc3)cc2)=NN1 (stereo not drawn) has an IC50 of 0.012 µg/mL (≈ 0.027 µM).
With COc1ccc(C2=NOC(c3c(C)nn(-c4ccccc4)c3-n3ccnc3)C2)cc1 (stereo not drawn) the IC50 was 0.012 µg/mL (≈ 0.03 µM).
With Cc1nn(-c2ccccc2)c(-n2ccnc2)c1C1CC(c2ccc(-c3ccccc3)cc2)=NO1 (stereo not drawn) the IC50 was 0.012 µg/mL (≈ 0.0269 µM).
COc1ccc(C2=NOC(c3c(C)nn(-c4ccccc4)c3-n3cnc(C)c3)C2)cc1 (stereo not drawn) showed an IC50 of 0.012 µg/mL (≈ 0.029 µM).
For Cc1nn(-c2ccccc2)c(-n2cncn2)c1C1=CC(c2ccccc2)=NC2Nc3ccccc3N12 (stereo not drawn), the IC50 was 0.03 µg/mL (≈ 0.0638 µM).
In the case of Cc1cn(-c2c(C3CC(c4ccc(F)cc4)=NO3)c(C)nn2-c2ccccc2)cn1 (stereo not drawn), the IC50 is reported as 0.012 µg/mL (≈ 0.0299 µM).

System: Plasmodium falciparum
Assay: Antiplasmodial activity against chloroquine sensitive Plasmodium falciparum FCR-3 infected in human erythrocytes incubated for 72 hrs by giemsa staining based assay
Format: functional, organism-based
Settings: FCR-3, 72 h
Work on CN1/C(=c2\s/c(=C\c3cc[n+](C)cc3)n(Cc3ccccc3)c2=O)Sc2ccccc21 yielded an EC50 of 4 nM.
Work on CCn1c(=O)/c(=C2\Sc3ccccc3N2C)s/c1=C\c1cccc[n+]1CCO yielded an EC50 of 4 nM.
For C=CCn1c(=O)/c(=C2\Sc3ccccc3N2C)s/c1=C\c1cc[n+](C)cc1, the EC50 was 4 nM.
For CN1/C(=c2\s/c(=C\c3cccc[n+]3C)n(Cc3ccccc3)c2=O)Sc2ccccc21, the EC50 was 4 nM.
In the case of CCn1c(=O)/c(=C2\Sc3ccccc3N2C)s/c1=C\c1cccc(-c2ccccc2)[n+]1C, the EC50 is reported as 4 nM.
With CCn1c(=O)/c(=C2\Sc3ccccc3N2C)s/c1=C\c1ccc2ccccc2[n+]1C the EC50 was 4 nM.
For CCn1c(=O)/c(=C2\Sc3ccccc3N2C)s/c1=C\c1cc[n+](C)c2ccccc12, the EC50 was 4 nM.
With CCn1c(=O)/c(=C2\Sc3ccccc3N2C)s/c1=C/c1cc[n+](CCO)cc1 the EC50 was 4 nM.
For CCn1c(=O)/c(=C2\Sc3ccccc3N2C)s/c1=C/c1cc[n+](C)c(-c2ccccc2)c1, the EC50 was 4 nM.
In the case of CCn1c(=O)/c(=C2\Sc3ccccc3N2C)s/c1=C/c1cc[n+](CCCCC(=O)O)cc1, the EC50 is reported as 4 nM.
For CCn1c(=O)/c(=C2\Sc3ccccc3N2C)s/c1=C\c1cccc[n+]1CCCCC(=O)O, the EC50 was 4 nM.
Work on C=CCn1c(=O)/c(=C2\Sc3ccccc3N2C)s/c1=C\c1cccc[n+]1C yielded an EC50 of 4 nM.
For CCn1c(=O)/c(=C2\Sc3ccccc3N2C)s/c1=C\c1cc[n+](C)cc1, the EC50 was 4 nM.
In the case of CCn1c(=O)/c(=C2\Sc3ccccc3N2C)s/c1=C\c1cccc[n+]1C, the EC50 is reported as 4 nM.

System: not listed separately
Assay: Selectivity index, ratio of EC50 for cytotoxicity against […] cells to EC50 for antiplasmodial activity against Plasmodium falciparum FCR-3 ATCC 30932 infected in human erythrocytes
Format: toxicity, cell-based
Settings: mouse, read-out: Ratio EC50
With CN1/C(=c2\s/c(=C\c3cc[n+](C)cc3)n(Cc3ccccc3)c2=O)Sc2ccccc21 the selectivity ratio was > 100.
In the case of CCn1c(=O)/c(=C2\Sc3ccccc3N2C)s/c1=C\c1cccc[n+]1CCO, the selectivity ratio is reported as > 100.
With C=CCn1c(=O)/c(=C2\Sc3ccccc3N2C)s/c1=C\c1cc[n+](C)cc1 the selectivity ratio was > 100.
With CN1/C(=c2\s/c(=C\c3cccc[n+]3C)n(Cc3ccccc3)c2=O)Sc2ccccc21 the selectivity ratio was > 100.
In the case of CCn1c(=O)/c(=C2\Sc3ccccc3N2C)s/c1=C\c1cccc(-c2ccccc2)[n+]1C, the selectivity ratio is reported as > 100.
For CCn1c(=O)/c(=C2\Sc3ccccc3N2C)s/c1=C\c1ccc2ccccc2[n+]1C, the selectivity ratio was > 100.
In the case of CCn1c(=O)/c(=C2\Sc3ccccc3N2C)s/c1=C\c1cc[n+](C)c2ccccc12, the selectivity ratio is reported as > 100.
In the case of CCn1c(=O)/c(=C2\Sc3ccccc3N2C)s/c1=C/c1cc[n+](CCO)cc1, the selectivity ratio is reported as > 100.
With CCn1c(=O)/c(=C2\Sc3ccccc3N2C)s/c1=C/c1cc[n+](C)c(-c2ccccc2)c1 the selectivity ratio was > 100.
With CCn1c(=O)/c(=C2\Sc3ccccc3N2C)s/c1=C/c1cc[n+](CCCCC(=O)O)cc1 the selectivity ratio was > 100.
With CCn1c(=O)/c(=C2\Sc3ccccc3N2C)s/c1=C\c1cccc[n+]1CCCCC(=O)O the selectivity ratio was > 100.
With C=CCn1c(=O)/c(=C2\Sc3ccccc3N2C)s/c1=C\c1cccc[n+]1C the selectivity ratio was > 100.
For CCn1c(=O)/c(=C2\Sc3ccccc3N2C)s/c1=C\c1cc[n+](C)cc1, the selectivity ratio was > 100.
With CCn1c(=O)/c(=C2\Sc3ccccc3N2C)s/c1=C\c1cccc[n+]1C the selectivity ratio was > 100.
